Legend:
[1] = tested on: Rat Skin Tumor Cell (B16F10 cell strain); assay: MTT cell viability assay; format: cell-based; details: Mus musculus, B16-F10
[2] = tested on: Normal Keratinocyte Cell (HaCaT cell strain); assay: MTT cell viability assay; format: cell-based; details: Homo sapiens
[3] = tested on: NF-κB in MDA-MB-231 cells; assay: NF-κB immunofluorescence staining; format: cell-based, human; details: MDA-MB-231, FIG. 7
Method: FIG. 7 illustrates photographs taken at a 200× field under a fluorescence microscope, where a primary antibody NF-κB was used and the cells were stained through the immunofluenrence staining method. In the immunofluenrence staining, the compound II in different concentrations were used to stimulate MDA-MB-231 cells, and a primary antibody NF-κB (with a dilution ratio of 1:250) was added, and then the cells were cultured at an atmosphere of 5% CO2 for 2 h at 37° C. Subsequently a fluorescence secondary antibody (with a dilution ratio of 1:200) was added, and finally DAPI (with a dilution ratio of 1:1000) was added. The cells were stored with protect from light at the room temperature for 5 min. The cells were observed under the fluorescence microscope and a photograph (200×) of the cells was taken. Finally, the cells were mounted with the mounting gel.

[4] = tested on: MMP-2, MMP-9, uPA, uPAR, TIMP-1, TIMP-2, PAI-1 in breast tumor cells; assay: western blotting of metastasis-related proteins; format: cell-based, human; details: 0.5, 1 and 2 μM, 24 h, with dose increasing
Method: The steps of western blotting include: washing cells with PBS twice at 4° C.; adding a lysis buffer and rubbing the cells by a rubbr policeman so as to lyse cells; putting the lysed cell solution into a 1.5 ml microcentrifuge tube and shaking for 1 min; centrifuging at 12000 rpm for 10 min and taking the supernatant; measuring concentration of the protein through a Bio-Rad protein assay kit; and storing the remained extracted protein solution at −70° C.; taking 100 μg protein solution and adding a SDS/protein loading buffer having the same volume, where the SDS/protein loading buffer has a concentration two times larger than the protein solution; boiling the mixture of the protein solution and the SDS/protein loading buffer at 100° C. for 10 min; cooling and loading the protein samples in each hole of gel; adjusting the voltage to 100 V and running the protein samples on the gel until the tracking dye in the sample buffer reaches the bottom of the gel; and subsequently transferring the protein from the gel using electrophoresis. […] Then luminescence image equipment was used, where the PVDF was placed onto a black metal plate by a plastic pincer and the face including protein was upwards, a 1:1 mixed Chemiluminesent Substrate was added into the membrane and the exposure time depends on the fluorescence intensity of antibodies. […]

[5] = tested on: human normal breast cells MCF-10A stimulated by TNF-α/TGF-β; assay: F-actin immunofluorescence staining (cell morphology); format: cell-based; details: 2 μM with TNF-α/TGF-β 10 ng/ml, 24 h
From the text: FIG. 5 illustrates photographs taken at a 200× field under a fluorescence microscope, where a primary antibody F-actin is used and the cells are stained through the immunofluenrence staining method. Specifically, the photographs noted as “Control” in the first column show the morphologies of the human normal breast cells MCF-10A without being treated with the compound I and TNF-α/TGF-β. The photographs noted as “TNF-αTGF-β” in the second column show the morphologies of the human normal breast cells MCF-10A treated with TNF-α/TGF-β wherein the concentrations of TNF-α and TGF-β were 10 ng/ml. The photographs noted as “Compound I (2 μM)” in the third column show the morphologies of the human normal breast cells MCF-10A treated with the compound I having a concentration of 2 μM. The photographs noted as “TNF-α/TGF-β Compound I (2 μM)” in the fourth column show the morphologies of the human normal breast cells MCF-10A treated with the compound I, TNF-α and 10 TGF-β for 24 h, wherein the concentrations of the compound I, TNF-α and 10 TGF-β were 2 μM, 10 ng/ml and 10 ng/ml, respectively.

[6] = tested on: MMP-9 and MMP2 in human normal breast cells MCF-10A stimulated by TNF-α/TGF-β; assay: Zymography enzyme activity assay; format: cell-based
From the text: Referring to FIG. 8B, the Zymography enzyme activity assay was used to detect effect of the compound II in different doses on enzyme activities of the MMP-9, MMP2 and uPA in the breast tumor cells MDA-MB-231. Moreover, referring to FIG. 9, the Zymography enzyme activity assay was used to detect effect of the compound I on enzyme activities of the MMP-9 and MMP2 in the human normal breast cells MCF-10A stimulated by TNF-α/TGF-β. In the Zymography enzyme activity assay, the cells (1×10^6) were planted in a 6-well plate. The next day after the cells were adhered to the wall, the cells were cultured in a serum free DMEM culture medium at an atmosphere of 5% CO2 in an incubator at 37° C. for 24 h. The compound II in different doses were added into the DMEM culture medium. In other test groups, the compound I was added, TNF-α/TGF-β were added or the compound I and TNF-α/TGF-β were added into the DMEM culture medium, wherein the concentration of compound I and TNF-α/TGF-β were 2 mM and 10 ng/ml, respectively. The cells were cultured in the culture medium for 2 h and then washed with PBS. The cell culture medium was putted into a microcentrifuge tube and centrifuged for 10 min at 1500 rpm. The supernatant was taken to perform a protein gel electrophoresis (SDS-PAGE), so as to separate the proteins. […]

IC50 [1] [µM] | SMILES | IC50 [2] [µM] | expression of NF-κB [3] | expression amount of TIMP-1, TIMP-2 and PAI-1 [4] | expression of MMP-2, MMP-9, uPA and uPAR [4] | cell morphology (F-actin staining) [5] | enzyme activities of MMP-2 and MMP-9 ([6]; compound alone) | enzyme activities of MMP-2 and MMP-9 ([6]; with TNF-α/TGF-β simultaneously)
20.6 | COC1=C(OC)C(=O)C(C)=C(C)C1=O [compound II] | 35.2 | inhibit expression of NF-κB | increased | inhibited |  |  | 
 | COC1=C(OC)C(=O)C(C)=CC1=O [compound I] |  |  |  |  | still was epithelial-like | decreased | recovered the increase caused by TNF-α/TGF-β stimulating

Source: US20150087722A1, “TREATMENT FOR BREAST TUMOR CELL METASTASIS” (China Medical University, priority 2012, published 2015)
